Results on 22 compounds are retold here after PubChem BioAssay (NCI).

Holding throughout (assay): NCI tumour cell line growth inhibition, 48 h
For assay [1], the system named is SK-MEL-2 melanoma.
In assay [2] the test system is KM12 colon.
Assay [3] relates to RXF 393 renal.
Assay [4] concerns A498 renal.
In assay [5] the test system is OVCAR-4 ovarian.
Assay [6] concerns TK-10 renal.
Assay [7] deals with MALME-3M melanoma.
Assay [8] has as its system NCI-H522 lung.
Assay [9] relates to UACC-257 melanoma.

Several values for one entry are separate records, joined by “and”; a condition that tells them apart may be missing. Equal values may be shown once.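 Each compound was tested at five concentrations against cells in 96-well plates for 48 hours. Abbreviation: GI50, concentration required for 50% inhibition of growth. At the TGI there is no net growth.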 Where only a bound is given, the exact number is not on record here.

Take `COC(=O)C1C(=O)CC2CCCCC21` (stereo not given): the TGI in [1], in [2], in assay [3], in assay [4], in assay [5] and in assay [6] was over 100 µM each time. The TGI in assay [7], in assay [8] and in [9] was over 100 µM each time.

As to `CN(C)/C=N\c1ccnc(=O)[nH]1`, the TGI in [1], in [2], in assay [3], in assay [4], in assay [5] and in [6] was over 100 µM throughout. The TGI in assay [7], in assay [8] and in [9] was over 100 µM in each case.

For the compound `Cc1ccc(Oc2ccccc2N)cc1`, the TGI in [1], in [2], in [3], in assay [4], in assay [5] and in assay [6] was over 100 µM in each case. Also, the TGI in assay [7] and in assay [9] was over 100 µM in each case.

With `Cl/C(N=Nc1ccccc1)=N/Nc1ccccc1`, the TGI in [1], in assay [2], in assay [3], in assay [4], in assay [5] and in assay [6] was over 100 µM in each case. In addition, the TGI in assay [7], in assay [8] and in [9] was over 100 µM throughout.

`NNc1cnn(-c2ccccc2)c(=O)c1Cl`: the TGI in assay [1], in [2], in assay [3], in assay [4], in [5] and in assay [6] was over 100 µM in each case. In addition, the TGI in [7], in [8] and in assay [9] was over 100 µM each time.

On to `Cc1c2c(cc3c1C(=O)C(=O)C1=C3OC[C@@H]1C)C(C)(C)CCC2`, for which the TGI in [1] came to 21.2 µM; in assay [2], 24.7 µM; in [3], 33.5 µM; in [4], 59.6 µM; in [5], 51.8 µM; in [6] it was 56.7 µM. Moreover, the results for the TGI in assay [7] and in [9] were 29 µM and 28.4 µM, respectively.

As to `COc1ccc(OC(C(=O)O)C(C)C)c2c1CCCC2=O` (stereo not given), the TGI in assay [1], in assay [2], in [4], in assay [5], in assay [6] and in assay [7] was over 100 µM each time. The TGI in assay [8] and in assay [9] was over 100 µM in each case.

Regarding `CC(=O)NC(CCCCN)C(=O)NCc1ccccc1` (stereo not given), the TGI in assay [1], in assay [2], in [3], in assay [4], in assay [5] and in assay [6] was over 100 µM in each case. The TGI in assay [7], in assay [8] and in assay [9] was over 100 µM in each case.

For the compound `C#CCNC(=O)NCCCCC(NC(=O)OCc1ccccc1)C(=O)OCc1ccccc1` (stereo not given), the TGI in assay [1] was over 100 µM; in assay [2], 69.8 µM; in assay [3] it was over 100 µM; in assay [4] it was over 100 µM; in assay [5], over 100 µM; in [6] it was over 100 µM. For the same compound, the TGI in assay [7] was over 100 µM; in assay [8], 54 µM; in [9], over 100 µM.

On to `O=C1OC(c2ccccc2)=N/C1=C\c1ccc(Oc2ccc(Cl)c(Cl)c2)cc1`, for which the TGI in [1] was over 100 µM; in assay [2], over 100 µM; in assay [3] it was 69.3 µM; in [4] it was over 100 µM; in [6], over 100 µM; in assay [7], over 100 µM. The TGI in assay [8] and in [9] was over 100 µM each time.

`C[Si](C)(C)C(CCCCSc1ccccc1)(Sc1ccccc1)Sc1ccccc1`: the TGI in [1], in assay [2], in assay [3], in assay [4], in assay [5] and in assay [6] was over 100 µM in each case. The compound also came in with a TGI in assay [9] of over 100 µM.

Turning to `CCc1cccc(C)c1N1C(=O)C(=O)C(c2nc3ccccc3o2)C(=O)C1=O`, the TGI in [1], in assay [2], in assay [4], in assay [5], in [6] and in assay [7] was over 100 µM throughout. Further, the TGI in assay [8] and in [9] was over 100 µM throughout.

Regarding `Clc1cccc(N2CCN(CCCN3CCc4c([nH]c5ccccc45)C3c3cccnc3)CC2)c1` (stereo not given), the TGI in assay [1] was 24.3 µM; in assay [3], 31 µM; in assay [4] it was 27.2 µM; in [5] it was 25.1 µM; in [7] it was 8.97 µM and 21.6 µM; in assay [8], 25.7 µM. In addition, the TGI in [9] is 12.1 µM. Moreover, the figures for the GI50 in [3] and in assay [7] were 11.5 µM and 5.78 µM, respectively.

`O=C(O)c1cc(=O)c2c([nH]c3ccccc32)s1`: the TGI in [1], in assay [2], in assay [3], in [5], in assay [6] and in [7] was over 100 µM in each case. In addition, the TGI in assay [8] and in [9] was over 100 µM throughout.

Regarding `Cc1c(C(=O)/C=C/C=C/c2ccccc2)[n+](=O)c2ccccc2n1[O-]`, the TGI in [1] is 91.3 µM; in assay [2], 43.7 µM; in assay [4] it was over 100 µM; in [5], over 100 µM; in [6], over 100 µM; in assay [7], 66.8 µM. Further, the figures for the TGI in [8] and in [9] were 32 µM and 84.6 µM, respectively.

Regarding `COC(=O)C12CC(NC(=O)c3csc([C@@H](C[C@H](C(C)C)N(C)C(=O)[C@@H](NC(=O)[C@H]4CCCCN4C)C4CC4)OC(C)=O)n3)(C1)C2`, the GI50 in assay [1] was 0.033 µM; in assay [2], 0.0363 µM; in [4] it was 0.0833 µM; in assay [5] it was 0.427 µM; in assay [6], 1.15 µM; in [7] it was 0.0357 µM. For the same compound, the GI50 is 0.00375 µM in assay [8] and over 16.7 µM in [9]. In addition, the TGI is over 16.7 µM in assay [1]; over 16.7 µM in assay [2]; over 4.46 µM in assay [4]; over 16.7 µM in assay [5]; over 16.7 µM in assay [6]; over 16.7 µM in [7]. For the same compound, the values for the TGI in [8] and in [9] were 3.15 µM and over 16.7 µM, respectively.

Take `CNc1ccc2ncccc2c1[N+](=O)[O-]`: the TGI in assay [1], in [2], in assay [3], in [4], in assay [5] and in [6] was over 100 µM throughout. The TGI in assay [7] and in assay [9] was over 100 µM each time.

Take `Cc1cc(NC(=O)C2C3C=CC(O3)C2C(=O)O)no1` (stereo not given): the TGI was over 100 µM in assay [1]; 31 µM in assay [3]; over 100 µM in assay [4]; over 100 µM in assay [5]; over 100 µM in assay [6]; over 100 µM in assay [7]. For the same compound, the results for the TGI in [8] and in assay [9] were over 100 µM and 64 µM, respectively.

As for `Cc1nc2ccc(Br)cc2c(=O)n1-c1ccc(NC2OCC(O)C(O)C2O)cc1` (stereo not given), the GI50 in assay [1] is 25.6 µM and > 100 µM; in [2] it was 26.3 µM and > 100 µM; in assay [3], 32.1 µM and > 100 µM; in assay [7], 23.2 µM and > 100 µM; in assay [9], over 100 µM. Further, the TGI in [1] is 66.3 µM and > 100 µM; in [2] it was 68.4 µM and > 100 µM; in [3], 51.4 µM and > 100 µM; in assay [4] it was over 100 µM; in assay [5], over 100 µM; in assay [6] it was over 100 µM. For the same compound, the TGI in [7] was 65 µM and > 100 µM; in assay [9], over 100 µM.

`CC1(c2cc3c(cc2Br)OCO3)SCCCS1`: the TGI was 88.3 µM in assay [1]; over 100 µM in [2]; 37.3 µM in assay [3]; over 100 µM in [4]; over 100 µM in [5]; over 100 µM in assay [6]. Besides, the TGI in assay [8] turned out to be 7.36 µM.

Consider `Cc1ccc(S(=O)(=O)N=NC=C2c3ccccc3N(O)c3ccccc32)cc1`, for which the TGI is 17.8 µM in assay [1]; 26.6 µM in assay [2]; 13.9 µM in [4]; 22.8 µM in assay [5]; 16.5 µM in assay [6]; 25.5 µM in assay [7]. Further, the figures for the TGI in [8] and in assay [9] were 3.86 µM and 23.7 µM, respectively.

As to `COc1ccc(Nc2nc3ccccc3c3occc23)cc1`, the GI50 in assay [1] was 8.68 µM; in [2], 1.78 µM; in [3], 5.42 µM; in assay [5] it was 9.2 µM; in assay [6], 6.83 µM; in assay [8], 14.5 µM. In assay [9], the GI50 is 19.8 µM. The TGI in [1] is 22.5 µM; in assay [2], 7.99 µM; in [3] it was 19.1 µM; in assay [5], 39.7 µM; in assay [6], 16.4 µM; in assay [8], 33 µM. This compound showed a TGI in [9] of over 50 µM.
